Test results published in PubChem BioAssay (NCI).
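Interpolation was linear, between the two tested concentrations surrounding the appropriate level; five concentrations were tested over 48 hours in 96-well plates. At the GI50, growth is halved. TGI denotes the concentration required for complete inhibition of growth.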

How the values were obtained:
Test in all cases: NCI anticancer screen, dose series, 48 h
[1] = tested on: EKVX NSCLC
[2] = tested on: K-562 leukemia
[3] = tested on: SF-268 CNS
[4] = tested on: SK-MEL-2 melanoma
[5] = tested on: SNB-19 CNS
[6] = tested on: SNB-75 CNS
[7] = tested on: SF-295 CNS

SMILES	TGI [1]	TGI [2]	TGI [3]	TGI [4]	TGI [5]	TGI [6]	TGI [7]	GI50 [1]	GI50 [3]	GI50 [7]	GI50 [4]	GI50 [5]	GI50 [6]
N#Cc1nc(Cc2cccs2)oc1N	> 100 µM	> 100 µM	> 100 µM	> 100 µM	> 100 µM	> 100 µM	–	–	–	–	–	–	–
c1csc(-c2csc(-c3cccs3)c2)c1	> 100 µM	–	> 100 µM	41.1 µM	> 100 µM	> 100 µM	> 100 µM	–	–	–	–	–	–
C1CN(C23OC4(N5CCOCC5)C5C6CC(C7C6C4C72)C53)CCO1 (centres undefined)	> 100 µM	> 100 µM	> 100 µM	> 100 µM	> 100 µM	> 100 µM	> 100 µM	–	–	–	–	–	–
CC(C)(C)OC(=O)N[C@@H](Cc1ccccc1)C(=O)N1CC[C@@H](C(=O)N2[C@H]3CC4CC[C@@]3(CS2(=O)=O)C4(C)C)N1	–	> 100 µM	> 100 µM	> 100 µM	> 100 µM	> 100 µM	–	–	–	–	–	–	–
CC1(C)CN=C(c2ccc3ccccc3c2O)N1	> 100 µM	> 100 µM	> 100 µM	> 100 µM	> 100 µM	> 100 µM	9.29 µM	–	–	–	–	–	–
COC(=O)C[C@H]1[C@]2(C)C3=C(C)[C@H](c4ccoc4)CC3O[C@@H]2[C@@H]2OC(=O)[C@]3(C)CCC(=O)[C@@]1(C)[C@@H]23 (some centres undefined)	–	> 100 µM	> 100 µM	> 100 µM	–	> 100 µM	> 100 µM	–	–	–	–	–	–
CN(NC(=O)/C(=C/C=C/c1ccccc1)NC(=O)c1ccccc1)C1=C(Cl)C(=O)[N+](c2ccccc2)=CC1	> 100 µM	49.9 µM	70.4 µM	70.9 µM	80.2 µM	69.6 µM	81.5 µM	–	–	–	–	–	–
CC[N+]1(C)CCC(O)(/C=C/c2ccc(Cl)c(Cl)c2)C(C(=O)/C=C/c2ccc(Cl)c(Cl)c2)C1 (centres undefined)	23.3 µM	4.07 µM	8.54 µM	11.4 µM	17.3 µM	12.2 µM	13.9 µM	–	–	–	–	–	–
CCOC(=O)C1C2C1C1C(C(=O)OCC)C21 (centres undefined)	> 100 µM	> 100 µM	> 100 µM	> 100 µM	> 100 µM	> 100 µM	> 100 µM	–	–	–	–	–	–
Cc1cccc(/C=N/NC(=S)NC(C)(C)C)n1	–	> 100 µM	> 100 µM	> 100 µM	> 100 µM	> 100 µM	> 100 µM	–	–	–	–	–	–
CC(=O)N/N=C1\NN(C(C)=O)C2(S1)C(=O)Nc1ccccc12 (centres undefined)	> 100 µM	> 100 µM	> 100 µM	> 100 µM	> 100 µM	> 100 µM	–	–	–	–	–	–	–
NC(=S)NS(=O)(=O)c1ccc(Cl)cc1Cl	> 100 µM	> 100 µM	> 100 µM	> 100 µM	> 100 µM	> 100 µM	> 100 µM	–	–	–	–	–	–
CCCCCCCCCC[C@@H](O)[C@H]1CC[C@@H]([C@H]2CC[C@H]([C@H](O)CCCCCCCCCC[C@@H]3CC(CC(C)=O)C(=O)O3)O2)O1 (some centres undefined)	> 100 µM	–	> 100 µM	59.9 µM	> 100 µM	–	> 100 µM	19.2 µM	27.4 µM	0.483 µM	21.5 µM	18.3 µM	72 µM
C=C1C[C@]23CC[C@@H]4C(CO)(CO)CC(=O)C[C@]4(C)[C@@H]2C(O)C[C@H]1C3 (some centres undefined)	> 100 µM	> 100 µM	> 100 µM	> 100 µM	> 100 µM	> 100 µM	> 100 µM	–	–	–	–	–	–
